The results in this text go back to patent US12180193B2, “Accelerating fibrosarcoma protein degrading compounds and associated methods of use” (Arvinas Operations, Inc., priority 2020, dated 2024).

One assay deals with T1, BRAF V600E (Homo sapiens, UniProt P15056, V600E).
T1 construct: expressed in transfected cells
Nature of the assay: Cellular assay of target protein degradation, T-Rex 293 cells stably transfected with HA-BRAF_V600E (HA immunofluorescence, high content imaging). In kind it is cell-based. Conditions: T-Rex 293 HA-BRAF V600E; for DC50: half maximal degradation, read-out: BRaf V600E DC50; for Dmax: maximum degradation observed. A digest of the protocol:
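HA immunofluorescence on fixed cells, imaged by high-content reader, measured loss of HA-BRAF V600E in stably transfected T-Rex 293 cells induced with 1 ng/mL doxycycline. Compounds were applied for 24 h at 37 °C (final 0.1 nM–1 μM, 0.1% DMSO); DC50 and Dmax (% of control) were reported.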

The next assay concerns the target T2, BRAF G466V (Homo sapiens, UniProt P15056, G466V).
T2 construct: expressed in transfected cells
In words: Cellular assay of target protein degradation, T-Rex 293 cells stably transfected with HA-BRAF G466V (HA immunofluorescence, high content imaging). In kind it is cell-based. Conditions: T-Rex 293 HA-BRAF G466V; for DC50: half maximal degradation, read-out: BRaf G466V DC50; for Dmax: maximum degradation observed. A digest of the protocol: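 HA-BRAF G466V levels were read by HA immunofluorescence and high-content imaging after 24 h compound exposure (final 30 nM–3 pM, 0.1% DMSO, 37 °C). Expression was induced with 0.75 ng/mL doxycycline. Outputs: half-maximal degradation concentration (DC50) and maximal degradation (Dmax) relative to control.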

Where only a bound is given, the exact number is not on record here.

As a reminder, the DC50 is the midpoint of the concentration-degradation curve. What is called Dmax is the greatest extent of degradation seen. Higher therefore signals deep degradation.

T2 sequence (P15056 whole entry G466V): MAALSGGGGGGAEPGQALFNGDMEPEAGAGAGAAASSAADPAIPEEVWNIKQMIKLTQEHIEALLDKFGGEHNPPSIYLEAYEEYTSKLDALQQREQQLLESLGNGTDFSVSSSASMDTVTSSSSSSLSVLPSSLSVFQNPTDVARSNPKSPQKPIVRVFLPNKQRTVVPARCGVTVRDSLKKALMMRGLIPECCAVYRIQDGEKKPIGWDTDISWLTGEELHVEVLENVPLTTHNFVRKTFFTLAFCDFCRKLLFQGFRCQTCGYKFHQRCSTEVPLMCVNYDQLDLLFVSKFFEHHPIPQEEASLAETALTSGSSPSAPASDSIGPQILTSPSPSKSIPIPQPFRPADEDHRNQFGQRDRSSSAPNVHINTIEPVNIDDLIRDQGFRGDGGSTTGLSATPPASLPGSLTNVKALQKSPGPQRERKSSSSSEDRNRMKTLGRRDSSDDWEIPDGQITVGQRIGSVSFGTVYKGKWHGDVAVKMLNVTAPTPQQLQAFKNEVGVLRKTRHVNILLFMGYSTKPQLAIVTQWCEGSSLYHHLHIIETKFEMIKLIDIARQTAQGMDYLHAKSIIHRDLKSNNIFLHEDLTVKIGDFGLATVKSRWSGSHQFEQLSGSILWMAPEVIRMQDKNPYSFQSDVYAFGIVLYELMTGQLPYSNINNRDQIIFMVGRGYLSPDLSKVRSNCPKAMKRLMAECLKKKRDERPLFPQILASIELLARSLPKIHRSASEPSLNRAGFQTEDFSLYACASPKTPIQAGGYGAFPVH
T1 sequence (P15056 whole entry V600E): as the sequence (P15056 whole entry G466V) above, with V466G, V600E counted along it

With `Cn1c(=O)n(C2CCC(=O)NC2=O)c2cccc(C3CCN(CC4CCN(c5ccc(-c6cnc7[nH]cc(C(=O)c8c(F)ccc(NS(=O)(=O)N9CC[C@@H](F)C9)c8F)c7c6)cc5)CC4)CC3)c21` (stereo partly drawn) [Compound 337, (3R)—N-(3-(5-(4-(4-((4-(1-(2,6-dioxopiperidin-3-yl)-3-methyl-2-oxo-2,3-dihydro-1H-benzo[d]imidazol-4-yl)piperidin-1-yl)methyl)piperidin-1-yl)phenyl)-1H-pyrrolo[2,3-b]pyridine-3-carbonyl)-2,4-difluorophenyl)-3-fluoropyrrolidine-1-sulfonamide], the DC50 lay within 0.005 to 0.05 µM on BRAF V600E and 0.001 to 0.01 µM at BRAF G466V. Moreover, the Dmax at BRAF V600E was 35 to 70%; on BRAF G466V it was above 70%.
Consider `CCCS(=O)(=O)Nc1ccc(F)c(-n2cc(-c3cncnc3)c3nc(N(C)C4CCN(C(=O)CCOCCOCCOCCOCCNc5cccc6c5C(=O)N(C5CCC(=O)NC5=O)C6=O)CC4)ccc32)c1F` (stereo not drawn) [Compound 338], for which, on BRAF V600E, the 50% degradation concentration (DC50) was in the range of 0.05 to 0.5 µM and the Dmax is 35 to 70%. In addition, on BRAF G466V, the DC50 is 0.01 to 0.03 µM and the greatest degradation seen (Dmax) lay in the range of 35 to 70%.
Regarding `O=C1CC[C@H](NC(=O)c2ccc(N3CCC(CN4CCN(c5ccc(-c6cnc7[nH]cc(C(=O)c8c(F)ccc(NS(=O)(=O)N9CC[C@@H](F)C9)c8F)c7c6)cc5)CC4)CC3)cc2F)C(=O)N1` [Compound 339, 4-(4-{[4-(4-{3-[2,6-difluoro-3-({[(3R)-3-fluoropyrrolidin-1-yl]sulfonyl}amino)benzoyl]-1H-pyrrolo[2,3-b]pyridin-5-yl}phenyl)piperazin-1-yl]methyl}piperidin-1-yl)-N-[(3S)-2,6-dioxopiperidin-3-yl]-2-fluoorobenzamide], on BRAF V600E, the DC50 was 0.005 to 0.05 µM and the greatest degradation seen (Dmax) lay in the range of 35 to 70%. Further, on BRAF G466V, the 50% degradation concentration (DC50) lay in the range of 0.001 to 0.01 µM and the Dmax is above 70%.
For `O=C1CC[C@@H](NC(=O)c2ccc(N3CCC(CN4CCN(c5ccc(-c6cnc7[nH]cc(C(=O)c8c(F)ccc(NS(=O)(=O)N9CC[C@@H](F)C9)c8F)c7c6)cc5)CC4)CC3)cc2F)C(=O)N1` [Compound 340] the same measures were 0.05 to 0.5 µM, below 35%, 0.001 to 0.01 µM and 35 to 70%.
For `O=C1CC[C@H](NC(=O)c2ccc(N3CCN(CC4CCN(c5ccc(-c6cnc7[nH]cc(C(=O)c8c(F)ccc(NS(=O)(=O)N9CC[C@@H](F)C9)c8F)c7c6)cc5)CC4)CC3)cc2F)C(=O)N1` [Compound 341, 4-(4-{[1-(4-{3-[2,6-difluoro-3-({[(3R)-3-fluoropyrrolidin-1-yl]sulfonyl}amino)benzoyl]-1H-pyrrolo[2,3-b]pyridin-5-yl}phenyl)piperidin-1-yl]methyl}piperazin-1-yl)-N-[(3S)-2,6-dioxopiperidin-3-yl]-2-fluorobenzamide], the 50% degradation concentration (DC50) fell in the range of 0.005 to 0.05 µM at BRAF V600E and 0.001 to 0.01 µM on BRAF G466V. Moreover, the Dmax at BRAF V600E was 35 to 70%; at BRAF G466V, above 70%.
For `O=C1CC[C@@H](NC(=O)c2ccc(N3CCN(CC4CCN(c5ccc(-c6cnc7[nH]cc(C(=O)c8c(F)ccc(NS(=O)(=O)N9CC[C@@H](F)C9)c8F)c7c6)cc5)CC4)CC3)cc2F)C(=O)N1` [Compound 342, 4-(4-{[1-(4-{3-[2,6-difluoro-3-({[(3R)-3-fluoropyrrolidin-1-yl]sulfonyl}amino)benzoyl]-1H-pyrrolo[2,3-b]pyridin-5-yl}phenyl)piperidin-4-yl]methyl}piperazin-1-yl)-N-[(3R)-2,6-dioxopiperidin-3-yl]-2-fluorobenzamide], in that order: 0.05 to 0.5 µM, 0.001 to 0.01 µM, below 35% and 35 to 70%.
For `COc1cc(N2CC3(CN(CC4CCN(c5ccc(-c6cnc7[nH]cc(C(=O)c8c(F)ccc(NS(=O)(=O)N9CC[C@@H](F)C9)c8F)c7c6)cc5)CC4)C3)C2)ccc1C(=O)N[C@H]1CCC(=O)NC1=O` [Compound 343, 4-(6-{[1-(4-{3-[2,6-difluoro-3-({[(3R)-3-fluoropyrrolidin-1-yl]sulfonyl}amino)benzoyl]-1H-pyrrolo[2,3-b]pyridin-5-yl}phenyl)piperidin-4-yl]methyl}-2,6-diazaspiro[3.3]heptan-2-yl)-N-[(3S)-2,6-dioxopiperidin-3-yl]-2-methoxybenzamide] the same measures were 0.005 to 0.05 µM, 0.001 to 0.01 µM, 35 to 70% and above 70%.
For `COc1cc(N2CC3(CN(CC4CCN(c5ccc(-c6cnc7[nH]cc(C(=O)c8c(F)ccc(NS(=O)(=O)N9CC[C@@H](F)C9)c8F)c7c6)cc5)CC4)C3)C2)ccc1C(=O)N[C@@H]1CCC(=O)NC1=O` [Compound 344, 4-(6-{[1-(4-{3-[2,6-difluoro-3-({[(3R)-3-fluoropyrroldiin-1-yl]sulfonyl}amino)benzoyl]-1H-pyrrolo[2,3-b]pyridin-5-yl}phenyl)piperidin-4-yl]methyl}-2,6-diazaspiro[3.3]heptan-2-yl)-N-[(3R)-2,6-dioxopiperidin-3-yl]-2-methoxybenzamide], in that order: 0.05 to 0.5 µM, 0.01 to 0.03 µM, below 35% and above 70%.
Take `O=C1CC[C@H](NC(=O)c2ccc(N3CC4(CN(CC5CCN(c6ccc(-c7cnc8[nH]cc(C(=O)c9c(F)ccc(NS(=O)(=O)N%10CC[C@@H](F)C%10)c9F)c8c7)cc6)CC5)C4)C3)cn2)C(=O)N1` [Compound 345, 5-(6-{[1-(4-{3-[2,6-difluoro-3-({[(3R)-3-fluoropyrrolidin-1-yl]sulfonyl}amino)benzoyl]-1H-pyrrolo[2,3-b]pyridin-5-yl}phenyl)piperidin-4-yl]methyl}-2,6-diazaspiro[3.3]heptan-2-yl)-N-[(3S)-2,6-dioxopiperidin-3-yl]pyridine-2-carboxamide]: on BRAF V600E, the DC50 was in the range of 0.005 to 0.05 µM and the Dmax fell in the range of 35 to 70%. At BRAF G466V, the DC50 lay within 0.001 to 0.01 µM and the maximal degradation (Dmax) is above 70%.
In the case of `O=C1CC[C@@H](NC(=O)c2ccc(N3CC4(CN(CC5CCN(c6ccc(-c7cnc8[nH]cc(C(=O)c9c(F)ccc(NS(=O)(=O)N%10CC[C@@H](F)C%10)c9F)c8c7)cc6)CC5)C4)C3)cn2)C(=O)N1` [Compound 346, 5-(6-{[1-(4-{3-[2,6-difluoro-3-({[(3R)-3-fluoropyrrolidin-1-yl]sulfonyl}amino)benzoyl]-1H-pyrrolo[2,3-b]pyridin-5-yl}phenyl)piperidin-4-yl]methyl}-2,6-diazaspiro[3.3]heptan-2-yl)-N-[(3R)-2,6-dioxopiperidin-3-yl]pyridine-2-carboxamide], on BRAF V600E, the DC50 was in the range of 0.05 to 0.5 µM and the Dmax is below 35%. For the same compound, on BRAF G466V, the DC50 lay within 0.001 to 0.01 µM and the Dmax was below 35%.
As for `COc1cc(N2CC3(CN(CC4CCN(c5ccc(-c6cnc7[nH]cc(C(=O)c8c(F)ccc(NS(=O)(=O)N9CC[C@@H](F)C9)c8F)c7c6)cc5)CC4)C3)C2)cc(F)c1C(=O)N[C@H]1CCC(=O)NC1=O` [Compound 347, 4-(6-{[1-(4-{3-[2,6-difluoro-3-({[(3R)-3-fluoropyrrolidin-1-yl]sulfonyl}amino)benzoyl]-1H-pyrrolo[2,3-b]pyridin-5-yl}phenyl)piperidin-4-yl]methyl}-2,6-diazaspiro[3.3]heptan-2-yl)-N-[(3S)-2,6-dioxopiperidin-3-yl]-2-fluoro-6-methoxybenzamide], at BRAF V600E, the DC50 lay in the range of 0.005 to 0.05 µM and the Dmax is 35 to 70%. At BRAF G466V, the DC50 was 0.001 to 0.01 µM and the Dmax was above 70%.
As for `COc1cc(N2CC3(CN(CC4CCN(c5ccc(-c6cnc7[nH]cc(C(=O)c8c(F)ccc(NS(=O)(=O)N9CC[C@@H](F)C9)c8F)c7c6)cc5)CC4)C3)C2)cc(F)c1C(=O)NC1CCC(=O)NC1=O` (stereo partly drawn) [Compound 348, 4-(6-{[1-(4-{3-[2,6-difluoro-3-({[(3R)-3-fluoropyrrolidin-1-yl]sulfonyl}amino)benzoyl]-1H-pyrrolo[2,3-b]pyridin-5-yl}phenyl)piperidin-4-yl]methyl}-2,6-diazaspiro[3.3]heptan-2-yl)-N-(2,6-dioxopiperidin-3-yl)-2-fluoro-6-methoxybenzamide], the DC50 at BRAF V600E lay in the range of 0.005 to 0.05 µM; on BRAF G466V it was 0.001 to 0.01 µM. Further, the values for the Dmax at BRAF V600E and on BRAF G466V were 35 to 70% and above 70%, respectively.
With `O=C1CC[C@H](NC(=O)c2ccc(OCCCCN3CCN(c4ccc(-c5cnc6[nH]cc(C(=O)c7c(F)ccc(NS(=O)(=O)N8CC[C@@H](F)C8)c7F)c6c5)cc4)CC3)cc2F)C(=O)N1` [Compound 349, 4-{4-[4-(4-{3-[2,6-difluoro-3-({[(3R)-fluoropyrrolidin-1-yl]sulfonyl}amino)benzoyl]-1H-pyrrolo[2,3-b]pyridin-5-yl}phenyl)piperazin-1-yl]butoxy}-N-[(3S)-2,6-dioxopiperidin-3-yl]-2-fluorobenzamide], at BRAF V600E, the DC50 is above 0.5 µM and the Dmax is above 70%. For the same compound, the DC50 on BRAF G466V was above 0.03 µM.
For `O=C1CCC(NC(=O)c2ccc(OCCCCN3CCN(c4ccc(-c5cnc6[nH]cc(C(=O)c7c(F)ccc(NS(=O)(=O)N8CC[C@@H](F)C8)c7F)c6c5)cc4)CC3)cc2F)C(=O)N1` (stereo partly drawn) [Compound 350, 4-{4-[4-(4-{3-[2,6-difluoro-3-({[(3R)-3-fluoropyrrolidin-1-yl]sulfonyl}amino)benzoyl]-1H-pyrrolo[2,3-b]pyridin-5-yl}phenyl)piperazin-1-yl]butoxy}-N-(2,6-dioxopiperidin-3-yl)-2-fluorobenzamide], in that order: 0.05 to 0.5 µM, below 35% and above 0.03 µM.
